The conditions of data set [1]: 298.15 K; for surface tension liquid-gas: Wilhelmy plate method; for viscosity / mass density: 101.33 kPa, Liquid; for viscosity: Capillary tube (Ostwald / Ubbelohde) method; for mass density: Vibrating tube method.
For data set [2] the following is noted: 100 kPa, Liquid mixture 1, Wilhelmy plate method.

± gives the expanded uncertainty stated by the source.

As for `CCCCCCCCCCCCCC[P+](CCCCCC)(CCCCCC)CCCCCC.O=S(=O)([N-]S(=O)(=O)C(F)(F)F)C(F)(F)F`, in data set [1], the surface tension liquid-gas was found to be 30.9 ± 0.3 mN/m, the viscosity amounted to 311.4 ± 11 mPa·s and the mass density amounted to 1065.5 ± 0.28 kg/m3.
Taken in the same sequence, the figures for `CCCCCCCCCCCC` [dodecane] were 24.9 ± 0.2 mN/m, 1.356 ± 0.029 mPa·s and 745.27 ± 0.24 kg/m3.
`CCCCCCCCCCCCCC[P+](CCCCCC)(CCCCCC)CCCCCC.O=S(=O)([N-]S(=O)(=O)C(F)(F)F)C(F)(F)F` + O: the interfacial tension in data set [2] (298.15 K) turned out to be 27.1 ± 0.2 mN/m; in data set [2] (348.15 K) it was 25.6 ± 0.2 mN/m.
In the case of `CCCCCCCCCCCC` [dodecane] + O, the results for the interfacial tension in data set [2] (298.15 K) and in data set [2] (348.15 K) were 52.2 ± 0.3 mN/m and 49.6 ± 0.3 mN/m, respectively.
Consider `O` [water], for which, in data set [1], the surface tension liquid-gas is on record as 72 ± 0.2 mN/m and the viscosity worked out at 0.904 ± 0.019 mPa·s.
Turning to `CCCCCCCCCCCCCC[P+](CCCCCC)(CCCCCC)CCCCCC.O=S(=O)([N-]S(=O)(=O)C(F)(F)F)C(F)(F)F` + CCCCCCCCCCCC, the interfacial tension in data set [2] (298.15 K) is reported as 0.9 ± 0.2 mN/m; in data set [2] (348.15 K) it was 0.6 ± 0.2 mN/m.
